The values below come from patent US6900202B2, “Di-substituted imineheterocyclic compounds” (priority 2000, dated 2005).

Molecules are shown by their SMILES.

This test deals with T1, α1β1γδ subtype of nicotinic acetylcholine receptors (Rattus norvegicus, UniProt P18916+P25108+P25109+P25110).
T1 construct: The centrifugation at 100,000×G for 60 minutes at 4° C. yielded the rat muscle extract as supernatant
T1 sequence (P25108 21-457): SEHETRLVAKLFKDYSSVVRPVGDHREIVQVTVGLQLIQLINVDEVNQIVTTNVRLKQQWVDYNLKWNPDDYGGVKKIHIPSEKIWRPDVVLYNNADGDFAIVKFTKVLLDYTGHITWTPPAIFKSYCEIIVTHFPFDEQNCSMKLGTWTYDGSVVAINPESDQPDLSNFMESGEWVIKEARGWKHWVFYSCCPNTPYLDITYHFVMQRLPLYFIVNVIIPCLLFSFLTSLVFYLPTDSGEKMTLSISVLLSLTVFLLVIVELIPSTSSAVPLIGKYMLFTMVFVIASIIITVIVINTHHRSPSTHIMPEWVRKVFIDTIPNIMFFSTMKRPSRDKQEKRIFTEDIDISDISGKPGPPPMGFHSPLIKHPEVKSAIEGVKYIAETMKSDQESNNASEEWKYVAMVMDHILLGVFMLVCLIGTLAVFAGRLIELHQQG
T1 sequence (P25109 24-501): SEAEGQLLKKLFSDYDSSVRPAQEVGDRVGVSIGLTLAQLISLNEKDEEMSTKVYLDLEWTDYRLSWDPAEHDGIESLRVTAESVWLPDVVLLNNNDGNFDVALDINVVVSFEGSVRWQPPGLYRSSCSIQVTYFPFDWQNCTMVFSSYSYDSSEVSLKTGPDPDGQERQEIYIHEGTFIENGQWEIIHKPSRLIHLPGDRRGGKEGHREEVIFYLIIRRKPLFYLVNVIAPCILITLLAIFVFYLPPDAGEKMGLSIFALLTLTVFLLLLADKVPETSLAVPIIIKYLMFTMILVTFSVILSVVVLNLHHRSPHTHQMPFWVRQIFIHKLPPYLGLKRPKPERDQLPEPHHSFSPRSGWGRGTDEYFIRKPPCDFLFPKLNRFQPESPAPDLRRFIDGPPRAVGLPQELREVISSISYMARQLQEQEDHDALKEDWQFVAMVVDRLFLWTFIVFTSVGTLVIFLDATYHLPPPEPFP
T1 sequence (P25110 22-517): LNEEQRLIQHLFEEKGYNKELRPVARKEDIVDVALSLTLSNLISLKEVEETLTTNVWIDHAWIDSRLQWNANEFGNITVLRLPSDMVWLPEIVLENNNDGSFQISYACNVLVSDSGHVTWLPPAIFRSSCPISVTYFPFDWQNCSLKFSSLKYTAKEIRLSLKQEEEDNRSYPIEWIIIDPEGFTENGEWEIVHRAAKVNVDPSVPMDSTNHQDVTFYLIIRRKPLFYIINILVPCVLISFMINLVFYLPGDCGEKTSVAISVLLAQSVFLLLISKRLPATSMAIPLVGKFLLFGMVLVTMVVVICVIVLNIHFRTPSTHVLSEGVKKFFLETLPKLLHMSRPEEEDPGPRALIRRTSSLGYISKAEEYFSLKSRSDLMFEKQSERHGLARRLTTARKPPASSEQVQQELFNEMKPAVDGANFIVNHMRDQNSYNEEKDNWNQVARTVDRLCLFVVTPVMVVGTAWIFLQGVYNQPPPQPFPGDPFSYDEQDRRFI
The experiment in a line: biochemical. Format: binding. The source says:
The methods for evaluating the binding capabilities of the compounds against nicotinic acetylcholine receptors are different by subtypes of receptors. The binding capabilities of the compounds at α4β2 nicotinic acetylcholine receptors are examined using rat brain membrane obtained from whole homogenized brain, and determining the inhibiting rate of the compounds against [^3H]-cytisine binding to said brain membrane. Furthermore, the binding capabilities of the compounds at α1β1γδ nicotinic acetylcholine receptors are examined using homogenized rat muscle, and determining the inhibiting rate of the compounds against [^3H]-α-bungarotoxin binding to said muscle membrane.
Binding Assays at α1β1γδ Subtype of Nicotinic Acetylcholine Receptors
The affinity of the compounds of the present invention to α1β1γδ subtype of nicotinic acetylcholine receptors was measured by the following method, which was modified method described by Garcha H. S., Thomas P., Spivak C.
(1) Preparation of Rat Skeletal Muscles Containing α1β1γδ Subtype of Nicotinic Acetylcholine Receptors
The substantially same animals described in the Biological Experiment 1 were used.
The isolation of α1β1γδ subtype of nicotinic acetylcholine receptors was performed as follow. That is, rat posterior skeletal muscles were isolated just after sacrificed by decapitation, washed with ice-cooled saline solution and then frozen at −80° C. with liquid nitrogen and stored till using. After thawing the frozen muscles, tissue was homogenized (40% w/v) with buffer solution [2.5 mM of sodium phosphate buffer (pH:7.2), 90 mM of NaCl, 2 mM of KCl, 1 mM of EDTA, 2 mM of benzamidine, 0.1 mM of benzethonium chloride, 0.1 mM of PMSF, 0.01% of sodium azide] in Waring blender [Waring blender 34BL97; WARING PRODUCTS DIVISION DYNAMICS CORPORATION OF AMERICA) for 60 seconds. The homogenate were centrifuged under 20,000×G for 60 minutes at 4° C. The supernatant was separated and the resulting pellet was added to the same buffer (1.5 ml/g wet weight), and homogenized under the same conditions. Triton X100 (2% w/v) was added and the mixture was stirred for 3 hours at 4° C. The centrifugation at 100,000×G for 60 minutes at 4° C. yielded the rat muscle extract as supernatant. This was stored at 4° C. for up to 4 weeks, and used for binding assays at receptors.
(2) Experiments of α1β1γδ Subtype of Nicotinic Acetylcholine Receptors Binding
Receptors binding experiments were performed as follow. That is, the extract of rat muscle containing 600-900 μg of protein was added to test tubes containing test compounds and incubated for 15 minutes at 37° C. Then, to this mixture was added 1 nM of [^3H]-α-bungarotoxin (α-Bgt) and further incubated for 2 hours. The samples were isolated by vacuum filtration onto Whatman GF/B filters, which were prerinsed with 0.5% polyethylenimine just prior to sample filtration, using Brandel multi manifold cell harvester. The filters were rapidly rinsed with washing solution (10 mM of KH2PO4, 150 mM of NaCl, pH 7.2, room temperature) (5×1 ml). The filters were counted in 3 ml of clearsol I (Nacalai Tesque Inc.). The determination of nonspecific binding was incubated in the presence of 1 μM α-Bgt. […] In the receptor binding experiments, said buffer solution was added for adjusting the final concentration of BSA to be 0.05%.
The analyses of the experimental results were conducted by as described in the Biological Experiment 1.
Broadly, the Ki is a dissociation constant, usually derived from enzyme kinetics or from competition with a known ligand. Read a high Ki as weaker binding. Turning to `Clc1ccc(C/N=C2\SCCN2Cc2ccc(Cl)nc2)cn1` [Compound 1, 3-(6-chloro-3-pyridyl)methyl-2-[(6-chloro-3-pyridyl)methyl]iminothiazolidine], the Ki is 420 µM. The result for `Clc1ccc(C/N=c2\sccn2Cc2ccc(Cl)nc2)cn1` [Compound 8, 3-(6-chloro-3-pyridyl)methyl-2-[(6-chloro-3-pyridyl)methyl]imino-2,3-dihydrothiazole] reads 840 µM; that for `Cn1ccn(Cc2ccc(Cl)nc2)c1=N` [Compound 13, 1-(6-chloro-3-pyridyl)methyl-2-imino-3-methyl-2,3-dihydroimidazole], 320 µM.
